Test results reported in PubChem BioAssay AID1918955 (Molecular Pharmacology Branch, DTP, NCI, 2023).
pIC50: −log10 of the molar value.

System: NCI/ADR-RES complex spheroid viability
Test: Anticancer human tumor NCI/ADR-RES cell line growth inhibition;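 further: spheroids exposed to compounds for 7 days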;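 on viability, T/C: 100% = DMSO vehicle treated spheroids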
Settings: for pIC50: curve of first compound; for viability, T/C: stronger effect = lower value
Outline: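 Multicellular complex spheroids of tumor cells with human endothelial cells (HUVEC) and mesenchymal stem cells; the LSD1 inhibitor iadademstat was combined with standard-of-care or investigational agents. Top concentration at or near clinical Cmax, half-log dilutions; final DMSO ≤0.25%.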

[1] = second compound 0.1 µM, first compound 0.00949 µM
[2] = second compound 0.1 µM, first compound 0.03 µM
[3] = second compound 0.1 µM, first compound 0.0949 µM
[4] = second compound 0.1 µM, first compound 0.3 µM
[5] = second compound 0.1 µM, first compound 0.949 µM
[6] = second compound 0.1 µM, first compound 3 µM
[7] = second compound 0.316 µM, first compound 0.00949 µM
[8] = second compound 0.316 µM, first compound 0.03 µM
[9] = second compound 0.316 µM, first compound 0.0949 µM
[10] = second compound 0.316 µM, first compound 0.3 µM
[11] = second compound 0.316 µM, first compound 0.949 µM
[12] = second compound 0.316 µM, first compound 3 µM
[13] = second compound 1 µM, first compound 0.00949 µM
[14] = second compound 1 µM, first compound 0.03 µM
[15] = second compound 1 µM, first compound 0.0949 µM
[16] = second compound 1 µM, first compound 0.3 µM
[17] = second compound 1 µM, first compound 0.949 µM
[18] = second compound 1 µM, first compound 3 µM
[19] = second compound 3.16 µM, first compound 0.00949 µM
[20] = second compound 3.16 µM, first compound 0.03 µM
[21] = second compound 3.16 µM, first compound 0.0949 µM
[22] = second compound 3.16 µM, first compound 0.3 µM
[23] = second compound 3.16 µM, first compound 0.949 µM
[24] = second compound 3.16 µM, first compound 3 µM
[25] = second compound 10 µM, first compound 0.00949 µM
[26] = second compound 10 µM, first compound 0.03 µM
[27] = second compound 10 µM, first compound 0.0949 µM
[28] = second compound 10 µM, first compound 0.3 µM
[29] = second compound 10 µM, first compound 0.949 µM
[30] = second compound 10 µM, first compound 3 µM
[31] = second compound 0.1 µM, first compound 0.000316 µM
[32] = second compound 0.1 µM, first compound 0.001 µM
[33] = second compound 0.1 µM, first compound 0.00316 µM
[34] = second compound 0.1 µM, first compound 0.01 µM
[35] = second compound 0.1 µM, first compound 0.0316 µM
[36] = second compound 0.1 µM, first compound 0.1 µM
[37] = second compound 0.316 µM, first compound 0.000316 µM
[38] = second compound 0.316 µM, first compound 0.001 µM
[39] = second compound 0.316 µM, first compound 0.00316 µM
[40] = second compound 0.316 µM, first compound 0.01 µM
[41] = second compound 0.316 µM, first compound 0.0316 µM
[42] = second compound 0.316 µM, first compound 0.1 µM
[43] = second compound 1 µM, first compound 0.000316 µM
[44] = second compound 1 µM, first compound 0.001 µM
[45] = second compound 1 µM, first compound 0.00316 µM
[46] = second compound 1 µM, first compound 0.01 µM
[47] = second compound 1 µM, first compound 0.0316 µM
[48] = second compound 1 µM, first compound 0.1 µM
[49] = second compound 3.16 µM, first compound 0.000316 µM
[50] = second compound 3.16 µM, first compound 0.001 µM
[51] = second compound 3.16 µM, first compound 0.00316 µM
[52] = second compound 3.16 µM, first compound 0.01 µM
[53] = second compound 3.16 µM, first compound 0.0316 µM
[54] = second compound 3.16 µM, first compound 0.1 µM
[55] = second compound 10 µM, first compound 0.000316 µM
[56] = second compound 10 µM, first compound 0.001 µM
[57] = second compound 10 µM, first compound 0.00316 µM
[58] = second compound 10 µM, first compound 0.01 µM
[59] = second compound 10 µM, first compound 0.0316 µM
[60] = second compound 10 µM, first compound 0.1 µM

In the case of `Nc1ccccc1NC(=O)c1ccc(CNC(=O)OCc2cccnc2)cc1` + NC1CCC(NC2CC2c2ccccc2)CC1, the pIC50 (second compound 0.1 µM) was 5.93, the pIC50 (second compound 0.316 µM) was 5.87 and the pIC50 (second compound 1 µM) was 5.90. For the same compound, the pIC50 (second compound 3.16 µM) was 6.01, the pIC50 (second compound 10 µM) was 6.21 and the viability, T/C [1] was 106%. For the same compound, the viability, T/C [2] was 96.8%, the viability, T/C [3] was 93.4% and the viability, T/C [4] was 80.8%. It also gave a viability, T/C [5] of 52.6%, a viability, T/C [6] of 32.7% and a viability, T/C [7] of 110%. It also gave a viability, T/C [8] of 98.6%, a viability, T/C [9] of 96.8% and a viability, T/C [10] of 93.8%. The viability, T/C [11] was 57.9%, the viability, T/C [12] was 30.5% and the viability, T/C [13] was 106%. The viability, T/C [14] was 100%, the viability, T/C [15] was 97.6% and the viability, T/C [16] was 76.5%. The viability, T/C [17] was 56.8%, the viability, T/C [18] was 32.9% and the viability, T/C [19] was 102%. It also gave a viability, T/C [20] of 100%, a viability, T/C [21] of 93% and a viability, T/C [22] of 79.6%. It also gave a viability, T/C [23] of 49.8%, a viability, T/C [24] of 30.7% and a viability, T/C [25] of 95.1%. For the same compound, the viability, T/C [26] was 79.8%, the viability, T/C [27] was 72.7% and the viability, T/C [28] was 65.5%. For the same compound, the viability, T/C [29] was 42.4% and the viability, T/C [30] was 22.2%.

`CC(C)CC(NC(=O)C(Cc1ccccc1)NC(=O)c1cnccn1)B(O)O` (stereo not given) + NC1CCC(NC2CC2c2ccccc2)CC1 gave a pIC50 (second compound 0.1 µM) of 7.99, a pIC50 (second compound 0.316 µM) of 7.92 and a pIC50 (second compound 1 µM) of 8.03. It also gave a pIC50 (second compound 3.16 µM) of 8.03, a pIC50 (second compound 10 µM) of 8.18 and a viability, T/C [31] of 103%. For the same compound, the viability, T/C [32] was 110%, the viability, T/C [33] was 92.4% and the viability, T/C [34] was 51.5%. The viability, T/C [35] was 10.4%, the viability, T/C [36] was 4% and the viability, T/C [37] was 111%. The viability, T/C [38] was 101%, the viability, T/C [39] was 100% and the viability, T/C [40] was 58.1%. It also gave a viability, T/C [41] of 9.17%, a viability, T/C [42] of 0.68% and a viability, T/C [43] of 104%. The viability, T/C [44] was 98.4%, the viability, T/C [45] was 98.7% and the viability, T/C [46] was 46.7%. For the same compound, the viability, T/C [47] was 8.19%, the viability, T/C [48] was 0.58% and the viability, T/C [49] was 95.9%. It also gave a viability, T/C [50] of 97.1%, a viability, T/C [51] of 86.1% and a viability, T/C [52] of 48.3%. For the same compound, the viability, T/C [53] was 7.8%, the viability, T/C [54] was 0.14% and the viability, T/C [55] was 94.1%. It also gave a viability, T/C [56] of 85.4%, a viability, T/C [57] of 82.6% and a viability, T/C [58] of 31.4%. It also gave a viability, T/C [59] of 8.41% and a viability, T/C [60] of 0.25%.

For `Cn1ncnc1C1c2n[nH]c(=O)c3cc(F)cc(c23)NC1c1ccc(F)cc1` (stereo not given) + NC1CCC(NC2CC2c2ccccc2)CC1, the pIC50 (second compound 0.1 µM) was less than 7.00, the pIC50 (second compound 0.316 µM) was less than 7.00 and the pIC50 (second compound 1 µM) was less than 7.00. The pIC50 (second compound 3.16 µM) was less than 7.00, the pIC50 (second compound 10 µM) was less than 7.00 and the viability, T/C [31] was 110%. The viability, T/C [32] was 108%, the viability, T/C [33] was 110% and the viability, T/C [34] was 103%. For the same compound, the viability, T/C [35] was 103%, the viability, T/C [36] was 96.6% and the viability, T/C [37] was 109%. The viability, T/C [38] was 106%, the viability, T/C [39] was 102% and the viability, T/C [40] was 102%. The viability, T/C [41] was 104%, the viability, T/C [42] was 103% and the viability, T/C [43] was 105%. The viability, T/C [44] was 109%, the viability, T/C [45] was 105% and the viability, T/C [46] was 104%. For the same compound, the viability, T/C [47] was 102%, the viability, T/C [48] was 98% and the viability, T/C [49] was 106%. The viability, T/C [50] was 109%, the viability, T/C [51] was 104% and the viability, T/C [52] was 109%. For the same compound, the viability, T/C [53] was 101%, the viability, T/C [54] was 105% and the viability, T/C [55] was 89.4%. For the same compound, the viability, T/C [56] was 95.9%, the viability, T/C [57] was 102% and the viability, T/C [58] was 92.9%. The viability, T/C [59] was 89.8% and the viability, T/C [60] was 84.5%.

Work on `Nc1ccccc1NC(=O)c1ccc(CNC(=O)OCc2cccnc2)cc1` + NC1CC1c1ccc(-c2cccc(O)c2)cc1 yielded a pIC50 (second compound 0.1 µM) of 6.08, a pIC50 (second compound 0.316 µM) of 6.04 and a pIC50 (second compound 1 µM) of 6.04. The pIC50 (second compound 3.16 µM) was 6.01, the pIC50 (second compound 10 µM) was 6.05 and the viability, T/C [1] was 93.7%. The viability, T/C [2] was 97.9%, the viability, T/C [3] was 85.7% and the viability, T/C [4] was 69.1%. It also gave a viability, T/C [5] of 48.3%, a viability, T/C [6] of 27.2% and a viability, T/C [7] of 99.2%. The viability, T/C [8] was 95.9%, the viability, T/C [9] was 95% and the viability, T/C [10] was 72.8%. For the same compound, the viability, T/C [11] was 50.3%, the viability, T/C [12] was 25.8% and the viability, T/C [13] was 93.3%. It also gave a viability, T/C [14] of 91.1%, a viability, T/C [15] of 85.3% and a viability, T/C [16] of 71.5%. It also gave a viability, T/C [17] of 49.1%, a viability, T/C [18] of 26.7% and a viability, T/C [19] of 93.5%. For the same compound, the viability, T/C [20] was 89.5%, the viability, T/C [21] was 80.5% and the viability, T/C [22] was 71%. It also gave a viability, T/C [23] of 49.4%, a viability, T/C [24] of 30.8% and a viability, T/C [25] of 83.4%. For the same compound, the viability, T/C [26] was 84.1%, the viability, T/C [27] was 74.7% and the viability, T/C [28] was 60.9%. The viability, T/C [29] was 51.3% and the viability, T/C [30] was 31%.
